Inconclusive results and toxic doses are left out. Cut-off read from the data, not from the text of the source: active = T/C of 150% or more; inactive = T/C below 125%.
Test system: L1210 leukemia ip in BDF1 mice, survival T/C
Assay: NCI In Vivo Anticancer Drug Screen. Data for tumor model L1210 Leukemia (intraperitoneal) in B6D2F1 (BDF1) mice
Conditions: higher = longer survival
Method in brief: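 Tumor cells were implanted, animals were treated, and survival was followed. The result divides the treated measurement by the vehicle-control measurement.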

[1] = endpoint: mean survival time, dose: 100.0 mg/kg/injection, schedule: Q01DX001 (ip), vehicle: saline
[2] = endpoint: mean survival time, dose: 100.0 mg/kg/injection, schedule: Q01DX009 (ip), vehicle: saline
[3] = endpoint: mean survival time, dose: 100.0 mg/kg/injection, schedule: Q04DX003 (ip), vehicle: saline
[4] = endpoint: mean survival time, dose: 200.0 mg/kg/injection, schedule: Q01DX001 (ip), vehicle: saline
[5] = endpoint: mean survival time, dose: 200.0 mg/kg/injection, schedule: Q04DX003 (ip), vehicle: saline
[6] = endpoint: mean survival time, dose: 400.0 mg/kg/injection, schedule: Q01DX001 (ip), vehicle: saline
[7] = endpoint: mean survival time, dose: 400.0 mg/kg/injection, schedule: Q04DX003 (ip), vehicle: saline
[8] = endpoint: mean survival time, dose: 100.0 mg/kg/injection, schedule: Q01DX009 (ip), vehicle: Klucel (hydroxypropylcellulose) (HPC)
[9] = endpoint: mean survival time, dose: 200.0 mg/kg/injection, schedule: Q01DX009 (ip), vehicle: Klucel (hydroxypropylcellulose) (HPC)
[10] = endpoint: mean survival time, dose: 100.0 mg/kg/injection, schedule: Q01DX001 (ip), vehicle: carboxymethylcellulose (CMC)
[11] = endpoint: mean survival time, dose: 200.0 mg/kg/injection, schedule: Q01DX001 (ip), vehicle: carboxymethylcellulose (CMC)
[12] = endpoint: mean survival time, dose: 100.0 mg/kg/injection, schedule: Q04DX002 (ip), vehicle: Klucel (hydroxypropylcellulose) (HPC)
[13] = endpoint: mean survival time, dose: 400.0 mg/kg/injection, schedule: Q01DX009 (ip), vehicle: Klucel (hydroxypropylcellulose) (HPC)
[14] = endpoint: mean survival time, dose: 100.0 mg/kg/injection, schedule: Q04DX003 (ip), vehicle: Klucel (hydroxypropylcellulose) (HPC)
[15] = endpoint: mean survival time, dose: 25.0 mg/kg/injection, schedule: Q04DX003 (ip), vehicle: Klucel (hydroxypropylcellulose) (HPC)
[16] = endpoint: mean survival time, dose: 50.0 mg/kg/injection, schedule: Q04DX003 (ip), vehicle: Klucel (hydroxypropylcellulose) (HPC)

Measured: T/C

CCCC/C(=N\NC(N)=S)c1ccc(F)cc1
inactive: endpoint: mean survival time, dose: 8.0 mg/kg/injection, schedule: Q01DX Z (ip), vehicle: methylcellulose (MC) 95 % of control | endpoint: mean survival time, dose: 15.0 mg/kg/injection, schedule: Q01DX Z (ip), vehicle: methylcellulose (MC) 89 % of control | endpoint: mean survival time, dose: 30.0 mg/kg/injection, schedule: Q01DX Z (ip), vehicle: methylcellulose (MC) 98 % of control | endpoint: mean survival time, dose: 30.0 mg/kg/injection, schedule: Q01DX Z (oral), vehicle: methylcellulose (MC) 86 % of control | endpoint: mean survival time, dose: 60.0 mg/kg/injection, schedule: Q01DX Z (ip), vehicle: methylcellulose (MC) 87 % of control

Cc1ccc(S(=O)(=O)CCCCCl)cc1
inactive: [1] 101 % of control | [2] 100 % of control | [3] 95 % of control | [4] 96 % of control | endpoint: mean survival time, dose: 200.0 mg/kg/injection, schedule: Q01DX009 (ip), vehicle: saline 97 % of control | [5] 92 % of control | [6] 104 % of control | endpoint: mean survival time, dose: 400.0 mg/kg/injection, schedule: Q01DX009 (ip), vehicle: saline 89 % of control | [7] 98 % of control

C=CCC#N
inactive: endpoint: mean survival time, dose: 25.0 mg/kg/injection, schedule: Q01DX009 (ip), vehicle: saline 95 % of control | endpoint: mean survival time, dose: 50.0 mg/kg/injection, schedule: Q01DX009 (ip), vehicle: saline 101 % of control | [2] 97 % of control

NC(=O)N=Nc1ccccc1
inactive: endpoint: mean survival time, dose: 100.0 mg/kg/injection, schedule: Q01DX001 (ip), vehicle: other 105 % of control | endpoint: mean survival time, dose: 200.0 mg/kg/injection, schedule: Q01DX001 (ip), vehicle: other 91 % of control | endpoint: mean survival time, dose: 400.0 mg/kg/injection, schedule: Q01DX001 (ip), vehicle: other 98 % of control

COc1ccc2c(ccc3c2ncc2c(=O)[nH][nH]c23)c1
inactive: endpoint: mean survival time, dose: 50.0 mg/kg/injection, schedule: Q01DX009 (ip), vehicle: Klucel (hydroxypropylcellulose) (HPC) 92 % of control | [8] 92 % of control | [9] 92 % of control

CN=C(NC#N)NCCSCc1nc[nH]c1C
inactive: endpoint: median survival time, dose: 12.0 mg/kg/injection, schedule: Q01DX009 (ip), vehicle: Klucel (hydroxypropylcellulose) (HPC) 100 % of control | endpoint: median survival time, dose: 25.0 mg/kg/injection, schedule: Q01DX009 (ip), vehicle: Klucel (hydroxypropylcellulose) (HPC) 101 % of control | endpoint: median survival time, dose: 50.0 mg/kg/injection, schedule: Q01DX009 (ip), vehicle: Klucel (hydroxypropylcellulose) (HPC) 106 % of control | endpoint: median survival time, dose: 100.0 mg/kg/injection, schedule: Q01DX009 (ip), vehicle: Klucel (hydroxypropylcellulose) (HPC) 106 % of control | endpoint: median survival time, dose: 200.0 mg/kg/injection, schedule: Q01DX009 (ip), vehicle: Klucel (hydroxypropylcellulose) (HPC) 108 % of control | endpoint: median survival time, dose: 400.0 mg/kg/injection, schedule: Q01DX009 (ip), vehicle: Klucel (hydroxypropylcellulose) (HPC) 104 % of control

CC1=CC(=O)CC(c2ccccc2)C1 (stereo unspecified)
inactive: [10] 105 % of control | [11] 103 % of control | endpoint: mean survival time, dose: 400.0 mg/kg/injection, schedule: Q01DX001 (ip), vehicle: carboxymethylcellulose (CMC) 109 % of control

COC(=O)/C=C(/Oc1cccc(C)c1)C(=O)OC
inactive: endpoint: mean survival time, dose: 100.0 mg/kg/injection, schedule: Q04DX003 (ip), vehicle: other 101 % of control | endpoint: mean survival time, dose: 200.0 mg/kg/injection, schedule: Q04DX003 (ip), vehicle: other 96 % of control | endpoint: mean survival time, dose: 400.0 mg/kg/injection, schedule: Q04DX003 (ip), vehicle: other 96 % of control

CC1(O)CCCCC1
inactive: [1] 102 % of control | [4] 104 % of control | [6] 96 % of control

O=C(O)c1cc(Br)c(Cl)c(Br)c1
inactive: [12] 100 % of control | endpoint: mean survival time, dose: 200.0 mg/kg/injection, schedule: Q04DX002 (ip), vehicle: Klucel (hydroxypropylcellulose) (HPC) 100 % of control

CCCCCS(=O)(=O)N1CCCCC1
inactive: endpoint: mean survival time, dose: 100.0 mg/kg/injection, schedule: Q04DX002 (ip), vehicle: other 103 % of control | endpoint: mean survival time, dose: 200.0 mg/kg/injection, schedule: Q04DX002 (ip), vehicle: other 92 % of control | endpoint: mean survival time, dose: 400.0 mg/kg/injection, schedule: Q04DX002 (ip), vehicle: other 107 % of control

O=S1(=O)C(c2ccccc2)C(N2CCCCC2)C1C1CC2c3ccccc3C1c1ccccc12 (stereo unspecified)
inactive: endpoint: mean survival time, dose: 75.0 mg/kg/injection, schedule: Q01DX001 (ip), vehicle: carboxymethylcellulose (CMC) 91 % of control | endpoint: mean survival time, dose: 150.0 mg/kg/injection, schedule: Q01DX001 (ip), vehicle: carboxymethylcellulose (CMC) 91 % of control | endpoint: mean survival time, dose: 300.0 mg/kg/injection, schedule: Q01DX001 (ip), vehicle: carboxymethylcellulose (CMC) 86 % of control

NC(=O)c1cc(Cl)ccc1OC(=O)Nc1ccccc1F
inactive: [8] 115 % of control | [9] 102 % of control | [13] 98 % of control

Cc1cc(=O)c2c(C)cccc2[nH]1
inactive: endpoint: mean survival time, dose: 6.25 mg/kg/injection, schedule: Q01DX009 (ip), vehicle: saline sonified 101 % of control | endpoint: mean survival time, dose: 6.25 mg/kg/injection, schedule: Q04DX003 (ip), vehicle: saline with Tween-80 90 % of control | endpoint: mean survival time, dose: 12.5 mg/kg/injection, schedule: Q01DX009 (ip), vehicle: saline sonified 99 % of control | endpoint: mean survival time, dose: 25.0 mg/kg/injection, schedule: Q01DX009 (ip), vehicle: saline sonified 99 % of control | endpoint: mean survival time, dose: 25.0 mg/kg/injection, schedule: Q04DX003 (ip), vehicle: saline with Tween-80 92 % of control

O=C(/C=C/c1ccccc1)OCc1ccccc1CN1C=CON1
inactive: endpoint: mean survival time, dose: 25.0 mg/kg/injection, schedule: Q04DX002 (ip), vehicle: Klucel (hydroxypropylcellulose) (HPC) 115 % of control | endpoint: mean survival time, dose: 50.0 mg/kg/injection, schedule: Q04DX002 (ip), vehicle: Klucel (hydroxypropylcellulose) (HPC) 105 % of control | [12] 105 % of control

COc1cc(CCO)cc(OC)c1
inactive: [10] 86 % of control | [11] 86 % of control

O=C(O)c1ccc(OCCCCOc2ccccc2)c(Cl)c1
inactive: [8] 98 % of control | [9] 98 % of control | [13] 95 % of control

CCOC(=O)C1(C(C)C)OC2(O)CCCCN2C1=O (stereo unspecified)
inactive: endpoint: mean survival time, dose: 12.5 mg/kg/injection, schedule: Q04DX003 (ip), vehicle: alcohol 106 % of control | endpoint: mean survival time, dose: 25.0 mg/kg/injection, schedule: Q04DX003 (ip), vehicle: alcohol 104 % of control | endpoint: mean survival time, dose: 50.0 mg/kg/injection, schedule: Q04DX003 (ip), vehicle: alcohol 113 % of control | endpoint: mean survival time, dose: 100.0 mg/kg/injection, schedule: Q04DX003 (ip), vehicle: alcohol 101 % of control

NC(N)=NN=C(c1ccc(F)cc1)c1ccc(F)cc1
inactive: endpoint: mean survival time, dose: 4.0 mg/kg/injection, schedule: Q01DX Z (oral), vehicle: carboxymethylcellulose (CMC) 111 % of control | endpoint: mean survival time, dose: 8.0 mg/kg/injection, schedule: Q01DX Z (oral), vehicle: carboxymethylcellulose (CMC) 104 % of control | endpoint: mean survival time, dose: 10.0 mg/kg/injection, schedule: Q01DX001 (ip), vehicle: carboxymethylcellulose (CMC) 100 % of control

CCCCCCCSCCSCCSCCCCCCC
inactive: [14] 101 % of control | endpoint: mean survival time, dose: 200.0 mg/kg/injection, schedule: Q04DX003 (ip), vehicle: Klucel (hydroxypropylcellulose) (HPC) 95 % of control | endpoint: mean survival time, dose: 400.0 mg/kg/injection, schedule: Q04DX003 (ip), vehicle: Klucel (hydroxypropylcellulose) (HPC) 95 % of control

CC(C)n1cnc2nc[nH]c2c1=S
inactive: endpoint: mean survival time, dose: 25.0 mg/kg/injection, schedule: Q01DX001 (ip), vehicle: Klucel (hydroxypropylcellulose) (HPC) 91 % of control | [15] 95 % of control | endpoint: mean survival time, dose: 50.0 mg/kg/injection, schedule: Q01DX001 (ip), vehicle: Klucel (hydroxypropylcellulose) (HPC) 95 % of control | [16] 102 % of control | endpoint: mean survival time, dose: 100.0 mg/kg/injection, schedule: Q01DX001 (ip), vehicle: Klucel (hydroxypropylcellulose) (HPC) 98 % of control | [14] 92 % of control

CC1(C)C/C(=N/O)C/C(=N\O)C1
inactive: [15] 95 % of control | [16] 96 % of control

CCC(=O)OCNC(=O)NCc1ccco1
inactive: endpoint: mean survival time, dose: 222.0 mg/kg/injection, schedule: Q01DX Z (ip), vehicle: methylcellulose (MC) 103 % of control | endpoint: mean survival time, dose: 333.0 mg/kg/injection, schedule: Q01DX Z (ip), vehicle: methylcellulose (MC) 105 % of control | endpoint: mean survival time, dose: 500.0 mg/kg/injection, schedule: Q01DX Z (ip), vehicle: methylcellulose (MC) 94 % of control

COC(=O)c1csc(CCN)n1
inactive: [3] 102 % of control | [5] 94 % of control | [7] 97 % of control
